Reference: patent publication US20190022152A1, “MICROBIOME RESPONSE TO AGENTS” (Yeda Research and Development Co., Ltd., priority 2014, published 2019)
Peptide text beside a SMILES is read from it.

Columns and labels:
[1] = test system: fecal matter from naïve mice; test: In vitro anaerobic culturing of fecal matter with saccharin; format: cell-based; details: In vitro, PBS vs. SAC
Protocol: pooled fecal matter from naïve adult WT C57Bl/6 male mice was resuspended in 5 ml PBS in an anaerobic chamber (Coy Laboratory Products, 75% N2, 20% CO2, 5% H2), vortexed for 3 minutes and allowed to settle by gravity for 2 minutes. […] were added to a tube containing Chopped Meat Carbohydrate Broth, PR II (BD) and […] of a 5 mgml-1 saccharin solution or an equal volume of PBS. Every 3 days, 500 ml of culture were diluted to fresh medium containing saccharin or PBS. After 9 days, cultures were used for inoculation of germ-free mice.
Frozen fecal samples were processed for DNA isolation using the MoBio PowerSoil kit according to the manufacturer's instructions. […] the variable region 2 (V2) of the 16S rRNA gene were generated by using the following barcoded primers: Fwd 5′-[…]-3′ (SEQ ID NO: 3), Rev 5′-[…]-3′ (SEQ ID NO: 4). […] Reads were then processed using the QIIME (Quantitative Insights Into Microbial Ecology) analysis pipeline as described, version 1.8. Paired-end joined sequences were grouped into operational taxonomic units (OTUs) using the UCLUST algorithm and the greengenes database. Sequences with distance-based similarity of 97% or greater over median sequence length of 353 bp were assigned to the same OTU. Samples were grouped according to the treatment. […] P-values were FDR corrected for multiple hypothesis testing.

mice = test: Oral glucose tolerance test in mice drinking non-caloric artificial sweeteners (NAS); format: in vivo; details: lean C57Bl/6 mice, normal chow, commercial NAS formulations in drinking water, week 11; p<0.001 vs water, glucose, sucrose
Source text: C57Bl/6 WT adult male mice were randomly assigned (without blinding) to treatment groups and were given commercial artificial sweeteners (saccharin-, sucralose- or aspartame-based) or pure saccharin (Sigma Aldrich) in drinking water and fed a high-fat (HFD D12492, 60% Kcal from fat, Research Diets) or standard polysaccharide normal chow (NC) diet (Harlan-Teklad). Compared groups were always fed from the same batch of diet. For antibiotic treatment, mice were given a combination of ciprofloxacin (0.2 gl^−1) and metronidazole ([…]) or vancomycin (0.5 gl^−1) in their drinking water. All antibiotics were obtained from Sigma Aldrich. Adult male outbred Swiss-Webster mice (a widely used mouse strain in germ-free experiments) served as recipients for fecal transplants and were housed in sterile isolators (Park Biosciences). For fecal transplantation experiments, 200 mg of stool (from mouse pellets or human swabs) was resuspended in 5 ml of PBS under anaerobic conditions, vortexed for 3 minutes and allowed to settle by gravity for 2 minutes. Recipient mice were gavaged with 200 μl of the supernatant and maintained on standard NC diet and water throughout the experiment.
The following commercially available NAS were dissolved in mice drinking water to obtain a 10% solution: Sucrazit (5% saccharin, 95% glucose), Sucralite (5% Sucralose), Sweet'n Low Gold (4% Aspartame). 10% glucose (J.T. Baker) and 10% sucrose (Sigma Aldrich) solutions were used for controls. […] For experiments conducted with pure saccharin (Sigma Aldrich) a 0.1 mgml^−1 solution was used in order to meet with FDA defined ADI for saccharin in humans (5 mgkg^−1), according to the following calculation:
Mice were fasted for 6 hours during the light phase, with free access to water. In all groups of mice where the drinking regime was other than water, it was substituted for water for the period of the fasting and glucose or insulin tolerance test. Blood from the tail vein was used to measure glucose levels using a glucometer (Bayer) immediately before and 15, 30, 60, 90 and 120 minutes after oral feeding with 40 mg glucose (J.T. Baker) or intra-peritoneal injection with 0.1 Ukg^−1 Insulin (Biological Industries). Plasma fasting insulin levels were measured in sera collected immediately before the start of GTT using ELISA (Ultra Sensitive Mouse Insulin ELISA Kit, Crystal Chem).

[2] = literature values; cited from earlier work

SMILES: O=C1NS(=O)(=O)c2ccccc21 [SAC]
- Log_fold change: 2-Oxocarboxylic acid metabolism [1]: 0.01
- Log_fold change: ABC transporters [1]: −0.03
- Log_fold change: Alanine, aspartate and glutamate metabolism [1]: −0.01
- Log_fold change: Amino sugar and nucleotide sugar metabolism [1]: 0.01
- Log_fold change: Aminoacyl-tRNA biosynthesis [1]: −0.02
- Log_fold change: Aminobenzoate degradation [1]: −0.01
- Log_fold change: Arginine and proline metabolism [1]: −0.01
- Log_fold change: Ascorbate and aldarate metabolism [1]: 0.03
- Log_fold change: Atrazine degradation [1]: −0.05
- Log_fold change: Bacterial chemotaxis [1]: 0.03
- Log_fold change: Bacterial secretion system [1]: 0.01
- Log_fold change: Base excision repair [1]: 0.00
- Log_fold change: Benzoate degradation [1]: −0.01
- Log_fold change: Biosynthesis of amino acids [1]: 0.00
- Log_fold change: Biosynthesis of siderophore group nonribosomal peptides [1]: −0.02
- Log_fold change: Biosynthesis of unsaturated fatty acids [1]: −0.03
- Log_fold change: Biotin metabolism [1]: −0.01
- Log_fold change: Bisphenol degradation [1]: 0.00
- Log_fold change: Butanoate metabolism [1]: −0.01
- Log_fold change: CS-Branched dibasic acid metabolism [1]: 0.01
- Log_fold change: Caprolactam degradation [1]: −0.02
- Log_fold change: Carbon fixation in photosynthetic organisms [1]: 0.00
- Log_fold change: Carbon fixation pathways in prokaryotes [1]: 0.00
- Log_fold change: Carbon metabolism [1]: −0.01
- Log_fold change: Cell cycle-Caulobacter [1]: 0.00
- Log_fold change: Chloroalkane and chloroalkene degradation [1]: −0.03
- Log_fold change: Citrate cycle (TCA cycle) [1]: 0.00
- Log_fold change: Cyanoamino acid metabolism [1]: 0.02
- Log_fold change: Cysteine and methionine metabolism [1]: 0.01
- Log_fold change: D-Alanine metabolism [1]: −0.04
- Log_fold change: D-Arginine and D-ornithine metabolism [1]: 0.24
- Log_fold change: D-Glutamine and D-glutamate metabolism [1]: −0.03
- Log_fold change: DDT degradation [1]: −0.35
- Log_fold change: DNA replication [1]: 0.00
- Log_fold change: Dioxin degradation [1]: −0.12
- Log_fold change: Drug metabolism-other enzymes [1]: 0.00
- Log_fold change: Ether lipid metabolism [1]: −0.02
- Log_fold change: Fatty acid biosynthesis [1]: −0.01
- Log_fold change: Fatty acid degradation [1]: −0.01
- Log_fold change: Fatty acid metabolism [1]: 0.00
- Log_fold change: Flagellar assembly [1]: 0.07
- Log_fold change: Folate biosynthesis [1]: 0.00
- Log_fold change: Fructose and mannose metabolism [1]: 0.00
- Log_fold change: Galactose metabolism [1]: 0.02
- Log_fold change: Geraniol degradation [1]: 0.00
- Log_fold change: Glutathione metabolism [1]: −0.03
- Log_fold change: Glycerolipid metabolism [1]: 0.00
- Log_fold change: Glycerophospholipid metabolism [1]: −0.02
- Log_fold change: Glycine, serine and threonine metabolism [1]: 0.00
- Log_fold change: Glycolysis/Gluconeogenesis [1]: −0.02
- Log_fold change: Glycosaminoglycan degradation [1]: 0.03
- Log_fold change: Glycosphingolipid biosynthesis-globoseries [1]: 0.05
- Log_fold change: Glyoxylate and dicarboxylate metabolism [1]: 0.01
- Log_fold change: Histidine metabolism [1]: 0.01
- Log_fold change: Homologous recombination [1]: −0.01
- Log_fold change: Inositol phosphate metabolism [1]: 0.02
- Log_fold change: Limonene and pinene degradation [1]: −0.01
- Log_fold change: Lipoicacid metabolism [1]: −0.01
- Log_fold change: Lipopolysaccharide biosynthesis [1]: 0.01
- Log_fold change: Lysine biosynthesis [1]: 0.00
- Log_fold change: Lysine degradation [1]: −0.03
- Log_fold change: Methane metabolism [1]: −0.01
- Log_fold change: Mismatch repair [1]: −0.01
- Log_fold change: Naphthalene degradation [1]: −0.02
- Log_fold change: Nicotinate and nicotinamide metabolism [1]: −0.02
- Log_fold change: Nitrogen metabolism [1]: 0.00
- Log_fold change: Nitrotoluene degradation [1]: −0.05
- Log_fold change: Novobiocin biosynthesis [1]: 0.02
- Log_fold change: Nucleotide excision repair [1]: 0.00
- Log_fold change: One carbon pool by folate [1]: 0.01
- Log_fold change: Other glycan degradation [1]: 0.03
- Log_fold change: Oxidative phosphorylation [1]: −0.02
- Log_fold change: Pantothenate and CoA biosynthesis [1]: 0.00
- Log_fold change: Penicillin and cephalosporin biosynthesis [1]: −0.02
- Log_fold change: Pentose and glucuronate interconversions [1]: 0.02
- Log_fold change: Pentose phosphate pathway [1]: 0.00
- Log_fold change: Peptidoglycan biosynthesis [1]: −0.02
- Log_fold change: Phenylalanine metabolism [1]: 0.01
- Log_fold change: Phenylalanine, tyrosine and tryptophan biosynthesis [1]: 0.01
- Log_fold change: Phosphonate and phosphinate metabolism [1]: −0.01
- Log_fold change: Phosphotransferase system (PTS) [1]: −0.17
- Log_fold change: Porphyrin and chlorophyll metabolism [1]: 0.01
- Log_fold change: Propanoate metabolism [1]: −0.01
- Log_fold change: Protein export [1]: −0.01
- Log_fold change: Proximal tubule bicarbonate reclamation [1]: −0.02
- Log_fold change: Purine metabolism [1]: −0.01
- Log_fold change: Pyrimidine metabolism [1]: −0.01
- Log_fold change: Pyruvate metabolism [1]: 0.00
- Log_fold change: RNA degradation [1]: −0.01
- Log_fold change: Riboflavin metabolism [1]: 0.01
- Log_fold change: Ribosome [1]: −0.01
- Log_fold change: Selenocompound metabolism [1]: −0.01
- Log_fold change: Sphingolipid metabolism [1]: 0.04
- Log_fold change: Starch and sucrose metabolism [1]: 0.01
- Log_fold change: Streptomycin biosynthesis [1]: 0.00
- Log_fold change: Styrene degradation [1]: 0.06
- Log_fold change: Sulfur metabolism [1]: −0.01
- Log_fold change: Sulfur relay system [1]: −0.03
- Log_fold change: Synthesis and degradation of ketone bodies [1]: −0.09
- Log_fold change: Taurine and hypotaurine metabolism [1]: 0.00
- Log_fold change: Terpenoid backbone biosynthesis [1]: −0.01
- Log_fold change: Tetracycline biosynthesis [1]: −0.15
- Log_fold change: Thiamine metabolism [1]: −0.02
- Log_fold change: Tropane, piperidine and pyridine alkaloid biosynthesis [1]: 0.02
- Log_fold change: Tryptophan metabolism [1]: −0.04
- Log_fold change: Two−component system [1]: 0.01
- Log_fold change: Tyrosine metabolism [1]: −0.01
- Log_fold change: Ubiquinone and other terpenoid-quinone biosynthesis [1]: −0.03
- Log_fold change: Valine, leucine and isoleucine biosynthesis [1]: 0.01
- Log_fold change: Valine, leucine and isoleucine degradation [1]: 0.00
- Log_fold change: Vibriocholerae pathogenic cycle [1]: 0.00
- Log_fold change: Vitamin B6 metabolism [1]: 0.00
- Log_fold change: Xylene degradation [1]: −0.12
- Log_fold change: beta-Alanine metabolism [1]: −0.01
- Log_fold change: beta-Lactam resistance [1]: 0.01

SMILES: COC(=O)[C@H](Cc1ccccc1)NC(=O)[C@@H](N)CC(=O)O [aspartame] (H-Asp-Phe-OMe)
- glucose tolerance (OGTT) (mice): marked glucose intolerance
- reported toxic dose [2]: 4 gkg^−1

SMILES: OC[C@H]1O[C@H](O[C@]2(CCl)O[C@H](CCl)[C@@H](O)[C@@H]2O)[C@H](O)[C@@H](O)[C@H]1Cl [sucralose]
- glucose tolerance (OGTT) (mice): marked glucose intolerance
- reported toxic dose [2]: 16 gkg^−1
